This passage reports Activity, viability and IC50 results from ChEMBL document CHEMBL5325431, “Synthesis of thieno[3,2-e]pyrrolo[1,2-a]pyrimidine derivatives and their precursors containing 2-aminothiophenes fragments as anticancer agents for therapy of pulmonary metastatic melanoma” (Eur J Med Chem, 2023).

pIC50: −log10 of the molar value.

In general, pIC50 refers to −log10 of the IC50, conventionally taken in molar units.

Series [1] is described as follows: Toxicity in C57BL/6 mouse assessed as effect on ALT level at 37 mg/kg, ip measured for 22 days. Type of series: organism-based. As to conditions: in vivo, 528 h, time 22 day.
The test system of series [2] is B16-F10. The experiment in a line: Induction of apoptosis in mouse B16-F10 cells assessed as late apoptotic cells at 20 uM measured after 48 hrs by Annexin V-FITC/7-AAD staining based flow cytometric analysis relative to control. Type of series: functional.
The subject of series [3] is B16-F10. The experiment in a line: Induction of apoptosis in mouse B16-F10 cells assessed as viable cells at 10 uM measured after 48 hrs by Annexin V-FITC/7-AAD staining based flow cytometric analysis relative to control. Type of series: functional. As to conditions: read-out: Activity. In general terms: Flow cytometry measures light scatter and fluorescence of single cells or particles in a stream.

Series [4] deals with B16-F10. The experiment in a line: Cytotoxicity against mouse B16-F10 cells assessed as reduction in cell viability at 1.5 uM incubated for 24 hrs by alamarblue staining based assay relative to control. It counts as functional. In general terms: Resazurin is reduced to fluorescent resorufin, in cell work by metabolically active cells.
In series [5] the test system is B16-F10. In words: Antitumor activity against metastatic mouse B16-F10 cells implanted in C57BL/6 mouse assessed as number of lung metastases at 9 to 9.5 mg/kg, ip administered for 22 days by histological analysis (reference value: 223 +/- 12). Type of series: functional. As to conditions: dose 9-9.5 mg/kg, time 22 day.
Series [6] deals with B16-F10. The experiment in a line: Cytotoxicity against mouse B16-F10 cells assessed as inhibition of cell growth incubated for 24 hrs by alamarblue staining based assay. It counts as functional. As to conditions: dose 0.28-55 µM.
The subject of series [7] is B16-F10. In words: Induction of apoptosis in mouse B16-F10 cells assessed as necrotic cells at 20 uM measured after 48 hrs by Annexin V-FITC/7-AAD staining based flow cytometric analysis relative to control. Type of series: functional.
Series [8] deals with B16-F10. In words: Cytotoxicity against mouse B16-F10 cells assessed as reduction in cell viability at 8.31 uM incubated for 24 hrs by alamarblue staining based assay relative to control. It counts as functional.
Series [9] relates to B16-F10. In words: Induction of apoptosis in mouse B16-F10 cells assessed as late apoptotic cells at 10 uM measured after 48 hrs by Annexin V-FITC/7-AAD staining based flow cytometric analysis relative to control. Type of series: functional.
The next series relates to CT26. In words: Cytotoxicity against mouse CT26 cells assessed as cell survival incubated for 24 hrs by alamarblue staining based analysis. Type of series: functional. As to conditions: CT26, 24 h.
Series [10] relates to B16-F10. In words: Cytotoxicity against mouse B16-F10 cells assessed as reduction in cell viability at 0.2 to 1.5 uM incubated for 24 hrs by alamarblue staining based assay relative to control. It counts as functional. As to conditions: dose 0.2-1.5 µM.
Series [11] deals with B16-F10. The experiment in a line: Cytotoxicity against mouse B16-F10 cells assessed as reduction in cell viability at 8.3 uM incubated for 24 hrs by alamarblue staining based assay relative to control. It counts as functional.
Series [12] concerns B16-F10. The experiment in a line: Cytotoxicity against mouse B16-F10 cells assessed as reduction in cell viability at 5.5 uM incubated for 24 hrs by alamarblue staining based assay relative to control. Type of series: functional.

As for `CCOC(=O)c1c(NC(=C\C(=O)c2ccc(OC)cc2)/C([O-])=C(\C#N)C(N)=O)sc2c1CCCC2.[K+]`, the Activity result was “Non-Toxic” in [1]; 95.1% in the series on B16-F10 [2]; ~80% in the series with B16-F10 [4]; 21 in the series on B16-F10 [5]; “Dose-Dependent Effect” in the series with B16-F10 [6]; 3.8% with B16-F10 [7]. In addition, the Activity with B16-F10 [8] is on record as 20%; in the series with B16-F10 [9] it was 85.3%. Besides, the viability at 10 µM in the series with B16-F10 [3] was 0.5%. In the series with CT26, the negative logarithm of the IC50 (pIC50) was 5.37.
Consider `CCOC(=O)c1c(N2C(N)=C(C#N)C(=O)/C2=C\C(=O)c2ccc(C)cc2)sc2c1CCCCC2`, for which the Activity result in [1] is recorded as “Non-Toxic”; in the series with B16-F10 [10], 40%; in the series with B16-F10 [11] it was 48%; in the series with B16-F10 [2], 96.5%; in the series with B16-F10 [12] it was 20%; with B16-F10 [5] it was 40. Further, the Activity result was “Dose-Dependent Effect” in the series on B16-F10 [6], 2.3% in the series on B16-F10 [7] and 75.6% in the series with B16-F10 [9]. Also, in the series with B16-F10 [3], the viability at 10 µM came to 1.1%. In the series on CT26, the negative logarithm of the IC50 (pIC50) was 5.13.
With `COc1ccc(C(=O)/C=C2\C(=O)C(C#N)=C3NC(=O)c4c(sc5c4CCCCC5)N32)cc1`, the Activity entry was “Non-Toxic” in [1]; 90% in the series with B16-F10 [10]; 92% in the series with B16-F10 [2]; 20% in the series on B16-F10 [12]; 75 with B16-F10 [5]; “Dose-Dependent Effect” with B16-F10 [6]. The figures for the Activity in the series on B16-F10 [7] and in the series with B16-F10 [9] were 7.4% and 88.6%, respectively. The viability at 10 µM in the series with B16-F10 [3] amounted to 0.3%. The negative logarithm of the IC50 (pIC50) in the series on CT26 is 5.03.
